According to US20230390416A1, “COMPOSITIONS FOR INDUCING TUMOR IMMUNITY AND REDUCING DRUG TOLERANCE” (The Brigham and Women's Hospital, Inc., priority 2020, published 2023):

Columns and labels:
[1] = clinical Cmax from published literature; used as ex vivo treatment concentration, 72 hours; cited from earlier work
[2] = test system: MDA-MB-468; experiment: Fluorescent lipid uptake by flow cytometry, DTCCs vs DNCCs; type: cell-based, human; conditions: multiple TNBC cell lines using epithelial-like MDA-MB-468
[3] = test system: MDA-MB-231 DTCCs; experiment: as above; type: cell-based, human; conditions: for uptake into DTCCs vs. DNCCs: fluorescently labeled lipids, flow cytometry
[4] = NPs exemplified in U.S. Pat. No. 10,300,143; cited from earlier work
[5] = test system: DTCCs; experiment: Western blot of DTCCs after transient exposure to Rad-NP or radicicol free drug; type: cell-based; conditions: 4 hours exposure, wash-out; in most cases
Description: Protein samples were resolved by SDS-PAGE and transferred to PVDF membranes prior to incubation at 4° C. with indicated primary antibodies, mTOR and pMTOR^Ser2448, pAKT^Thr308 and AKT, Phospho-p44/42 MAPK (Erk1/2)^Thr202/Tyr204, p44/42 MAPK (Erk1/2) pPRAS40^Thr246 pSTAT3^Tyr705, STAT3, PRAS40 and β-Actin antibodies were purchased from Cell Signaling Technology, pHck^Tyr410 (Thermo Fisher Scientific) MICA/B (R&D Systems, Minneapolis, MN) and HSF-1 and HSF-1^Ser326 (abcam).

[6] = test system: Hsp90
[7] = test system: MDA-MB-231 DTCCs; experiment: MICA/B expression by flow cytometry in DTCCs under Hsp90 inhibitors; type: cell-based, human; conditions: % MICA/B positively expressing cells, overnight (radicicol 5 μM, FIG. 3C), vehicle 76.2 ± 1.1
Description: (§1) Two schedules of drugs in combination were administered to the indicated TNBC parental cell lines (A). […] Plots generated using constant ratio drug combination. […] N=11 in biological replicate. • (D) Quantification of MICA/B mean fluorescence, corrected for background by negative control. […] N≥4 in biological replicate. • (I) In vitro drug synergy was determined using the Chau-Talalay method. Two schedules of drugs in combination were administered to the indicated TNBC parental cell lines (A). […] Plots generated using constant ratio drug combination. Values falling below 1.0 combination index=synergy. • (J) In silico prediction model of drug schedule on signaling pathways. […] The first drug was administered at the beginning of the experiment (t=0), followed by the second drug after 48 h (t=48). […] GAPDH loading control.
(§2) Human MDA-MB-231, MDA-MB-468, MDA-MB-436, MCF-7, mammary carcinoma 4T-1 cells (ATCC) and SUM159 (Bioivt) were purchased in the last 10 years and cultured in 10% fetal bovine serum in DMEM or RPMI media (Invitrogen, Carlsbad CA, USA). Cell lines were validated for absence of mycoplasma prior to use, by the sourcing agency. Cells were used within 10 passages from frozen stock vials obtained from the sourcing agency.

[8] = test system: MDA-MB-468 DTCCs; experiment: as above; type: cell-based, human; conditions: % MICA/B positively expressing cells, vehicle 54.7 ± 3.9
Description: as §1, §2

[9] = test system: SUM 159 DTCCs; experiment: as above; type: cell-based, human; conditions: % MICA/B positively expressing cells, vehicle 30.6 ± 0.9
Description: as §1, §2

Compound: C=C1C[C@@H]2CC[C@@]34C[C@H]5O[C@H]6[C@@H](O3)[C@H]3O[C@H](CC[C@@H]3O[C@H]6[C@H]5O4)CC(=O)C[C@@H]3[C@@H](OC)[C@@H](C[C@H](O)CN)O[C@H]3C[C@H]3O[C@@H](CC[C@@H]1O2)C[C@@H](C)C3=C [Eribulin]
- Cmax (concentration used) [1]: 0.371 µg/mL

Compound: CCCCCOC(=O)Nc1nc(=O)n([C@@H]2O[C@H](C)[C@@H](O)[C@H]2O)cc1F [Capecitabine]
- Cmax (concentration used) [1]: 3.9 µg/mL

Compound: CCCCCCCC/C=C\CCCCCCCC(=O)OC[C@H](COP(=O)([O-])OCC[N+](C)(C)C)OC(=O)CCCCCNc1ccc([N+](=O)[O-])c2nonc12 [phosphatidylcholine (PC), 1-oleoyl-2-{6-[(7-nitro-2-1,3-benzoxadiazol-4-yl)amino]hexanoyl}-sn-glycero-3-phosphocholine]
- specificity of binding to DTCCs [2]: bound with the highest degree of specificity
- rate of internalization in DTCC vs DNCC ([3]; checked at definite time intervals): higher rate of internalization
- uptake into DTCCs vs. DNCCs [3]: significantly increased uptake into DTCCs vs. DNCCs

Compound: CCCCCCCC/C=C\CCCCCCCC(=O)OC[C@H](COP(=O)(O)O)OC(=O)CCCCCCCCCCCNc1ccc([N+](=O)[O-])c2nonc12.N.N [phosphatidic acid (PA), 1-oleoyl-2-{12-[(7-nitro-2-1,3-benzoxadiazol-4-yl)amino]dodecanoyl}-sn-glycero-3-phosphate (ammonium salt)]
- uptake into DTCCs vs. DNCCs [3]: to a lesser degree

Compound: Pembrolizumab: clinically-approved anticancer drug
- Cmax (concentration used) [1]: 65.7 µg/mL

Compound: Nc1ccc(-c2cccc3c(=O)cc(N4CCOCC4)oc23)cc1 [PI-828]
- incorporation efficiency [4]: ~40%

Compound: C/C(=C\c1csc(C)n1)[C@@H]1C[C@@H]2O[C@]2(C)CCC[C@H](C)[C@H](O)[C@@H](C)C(=O)C(C)(C)[C@@H](O)CC(=O)N1 [Ixabepilone]
- Cmax (concentration used) [1]: 0.252 µg/mL

Compound: CCC1=C[C@@H]2CN(C1)Cc1c([nH]c3ccccc13)[C@@](C(=O)OC)(c1cc3c(cc1OC)N(C)[C@H]1[C@@](O)(C(=O)OC)[C@H](OC(C)=O)[C@]4(CC)C=CCN5CC[C@]31[C@@H]54)C2 [Vinorelbine]
- Cmax (concentration used) [1]: 0.1266 µg/mL

Compound: CC(=O)O[C@H]1C(=O)[C@@]2(C)[C@H]([C@H](OC(=O)c3ccccc3)[C@]3(O)C[C@H](OC(=O)[C@H](O)[C@@H](NC(=O)c4ccccc4)c4ccccc4)C(C)=C1C3(C)C)[C@]1(OC(C)=O)CO[C@@H]1C[C@@H]2O [Paclitaxel]
- Cmax [1]: 6.91 µM

Compound: C[C@@H]1C[C@H]2O[C@@H]2/C=C\C=C\C(=O)Cc2c(Cl)c(O)cc(O)c2C(=O)O1 [Radicicol, radicicol]
- time of rescue of signaling disruption [5]: ≤ 36 h

Compound: CC(=O)O[C@@]12CO[C@@H]1C[C@H](O)[C@@]1(C)C(=O)[C@H](O)C3=C(C)[C@@H](OC(=O)[C@H](O)[C@@H](NC(=O)OC(C)(C)C)c4ccccc4)C[C@@](O)([C@@H](OC(=O)c4ccccc4)[C@H]21)C3(C)C [Docetaxel, docetaxel]
- active form of HSF-1 (Ser326) ([6]; parental MDA-MB-231 cells under docetaxel drug pressure, western blot): induced the active form of HSF-1 (Ser326)
- Cmax (concentration used) [1]: 2 µg/mL

Compound: CC(C)NCCCn1c(Sc2cc3c(cc2I)OCO3)nc2c(N)ncnc21 [PU-H71]
- cytoplasmic sequestration of HSF-1 Ser326 and activation of pro-survival proteins ([6]; DTCCs, confocal microscopy and western blot): reversed cytoplasmic sequestration of HSF-1^Ser326 and activation of pro-survival proteins
- MICA (%) ± SEM [7]: 79.5 ± 0.4%
- MICA (%) ± SEM [8]: 71.9 ± 4.2%
- MICA (%) ± SEM [9]: 33.3 ± 4.1%

Compound: CC(CCC[C@@H](C)[C@@H]1CC[C@H]2[C@@H]3CC=C4C[C@@H](O)CC[C@]4(C)[C@H]3CC[C@@]21C)N(C)c1ccc([N+](=O)[O-])c2nonc12 (some centres unmarked) [cholesterol, 25-[N-[(7-nitro-2-1,3-benzoxadiazol-4-yl)methyl]amino]-27-norcholesterol]
- specificity of binding to DTCCs [2]: bound with the highest degree of specificity
- uptake into DTCCs vs. DNCCs [3]: significantly increased uptake into DTCCs vs. DNCCs

Compound: Nc1ccn([C@@H]2O[C@H](CO)[C@@H](O)C2(F)F)c(=O)n1 [Gemcitabine]
- Cmax (concentration used) [1]: 22.3 µg/mL

Compound: CC(C)c1cc(-c2n[nH]c(=O)n2-c2ccc3c(ccn3C)c2)c(O)cc1O [Ganetespib, ganetespib]
- MICA (%) ± SEM [7]: 82.5 ± 2.2%
- MICA (%) ± SEM [8]: 70.1 ± 3.0%
- MICA (%) ± SEM [9]: 35.4 ± 6.0%

Compound: Oc1cccc(-c2nc(N3CCOCC3)c3oc4ncccc4c3n2)c1 [PI-103]
- incorporation efficiency [4]: 55-65%

Compound: N.N.O=C([O-])C1(C(=O)[O-])CCC1.[Pt+2] [Carboplatin]
- Cmax (concentration used) [1]: 37.1 µg/mL
